Reference: patent publication US7060733B2, “Methods for treating pancreatitis with curcumin compounds and inhibitors of reactive oxygen species” (The Regents of the University of California, priority 2002, dated 2006)
“Also recorded” adds a separate entry of the source.

What was measured:
[1] = system: rats with cerulein pancreatitis or ethanol/CCK pancreatitis; test: Serum amylase and lipase in cerulein and ethanol/CCK pancreatitis models; type: in vivo; details: rat; for inhibition of the increase in serum amylase and lipase: curcumin 35 mg/kg/h i.v. for 6 h
Method: 5 μg/kg/h of Cerulein (American Peptide Co., Sunnyvale, Calif.) or vehicle control was administered to male Sprague-Dawley rats (275-350 g; Harlan, Madison, Wis.) by continuous 6-hour intravenous infusion by conventional methods known in the art. See Gukovskaya A S, et al. (1997) J. Clin. Invest. 100:1853-1862; Gukovsky I, et al. (1998) Am. J. Physiol. 275:[…]-[…]; and Zaninovic V, et al. (2000) Am. J. Physiol. 279:[…]-[…], which are herein incorporated by reference. Animals were euthanized by CO2-induced asphyxiation, and blood and the pancreas were harvested for measurements. Curcumin (Sigma Chemical, St. Louis, Mo.) was dissolved in dimethyl sulfoxide (DMSO) and administered to each animal by i.v. infusion together with cerulein at a dose of 35 mg/kg/h. Thus, during the 6-hour treatment, each animal received a total of 200 mg/kg (0.5 mmol/kg) of curcumin. Serum amylase and lipase were measured under contract using a Hitachi 707 analyzer (Antech Diagnostics, Irvine Calif.) and methods known in the art. […] Thus, curcumin inhibits […] pancreatitis. An ethanol/CCK-induced pancreatitis model as previously described was used. See Pandol S J, et al. (1999). Specifically, Sprague-Dawley rats (400-500 g; Harlan, Madison, Wis.) were given an intragastric infusion of ethanol-containing or control diet for 6 weeks followed by 6-hour infusion of a low dose (3000 pmol/kg/h) CCK-8 (Peninsula Laboratories, Belmont, Calif.). […] CCK-8 causes pancreatitis in both rats and mice by stimulating the activation of the inflammatory signals, i.e. NF-κB and AP-1, in the pancreatic acinar cell. Animals were euthanized by CO2-induced asphyxiation, and blood and the pancreas were harvested for measurements. Curcumin (Sigma Chemical, St. Louis, Mo.) was dissolved in dimethyl sulfoxide (DMSO) and administered to each animal by i.v. infusion together with CCK-8 at a dose of 35 mg/kg/h. Thus, during the 6-hour treatment, each animal received a total of 200 mg/kg (c. 0.5 mmol/kg) of curcumin. Serum amylase and lipase were measured under contract using a Hitachi 707 analyzer (Antech Diagnostics, Irvine Calif.) and methods known in the art. […] Thus, curcumin inhibits […] pancreatitis.

NF-κB [2] = test: CCK-induced NF-κB activation in isolated pancreatic acinar cells (EMSA); type: cell-based, rat
Method: To confirm that the effects of curcumin occur in the pancreatic acinar cell, the effects of curcumin on the activation of NF-κB and AP-1 in vitro in CCK-stimulated pancreatic acini. Pancreatic acini were prepared from rat pancreas using the collagenase digestion method as described by Pandol S J, et al. (1982) J. Biol. Chem. 257:12024–12029, which is herein incorporated by reference, and then incubated at 37° C. in 199 medium (GIBCO, Rockville, Md.) known in the art. See Blinman T A, et al. (2000); Gukovskaya A S, et al. (1997); Gulkovsky I, et al. (1998); and Zaninovic V, et al. (2000).
EMSAs for NF-κB and AP-1 were performed on nuclear proteins extracted from each sample as provided above.
Nuclear protein extracts were prepared by methods known in the art. See Blinman T A, et al. (2000); Gukovskaya A S, et al. (1997); Gukovsky I, et al. (1998); Pandol S J, et al. (1999); Vaquero E, et al. (2001); and Zaninovic V, et al. (2000). Briefly, samples of pancreatic tissue or isolated acini were rinsed in ice-cold PBS and homogenized in hypotonic Buffer A (20 mM β-glycerophosphate, 10 mM HEPES, pH 7.6, 1.5 mM MgCl2, 10 mM KCl, 10 mM Na2MoO4, 0.1 mM Na3VO4, 1 mM dithiothreitol (DTT), 1 mM phenylmethylsulfonyl fluoride (PMSF), 5 μg/ml each of protease inhibitors pepstatin, leupeptin, chymostatin, antipain and aprotinin). […]

NF-κB [3] = test: Curcumin and N-acetylcysteine alone and in combination, NF-κB activation in CCK-stimulated acinar cells; type: cell-based, rat; details: curcumin 50 μM alone, 0.1 μM CCK
Method: To measure the effects of curcumin compounds and ROS inhibitors, EMSAs and nuclear protein extractions were conducted as provided above. […] EMSAs for NF-κB activation were performed on nuclear proteins extracted from each sample.

[4] = Solubility of curcumin compounds; type: physicochemical; details: dissolved in DMSO, veins of the rat
AP-1 = test: EMSA for AP-1 on nuclear extracts from pancreatic tissue; type: in vivo; details: rat
Method: Specifically, aliquots of nuclear extracts with equal amounts of protein (about 2 to about 10 mg) were mixed in 20 μl reactions with a buffer containing 10 mM HEPES (pH 7.8), 50 mM KCl, 0.1 mM EDTA, 1 mM DTT, 10% (vol/vol) glycerol, and 3 μg of poly(dI-dC). Binding reactions were started by the addition of c. 60,000 cpm of ^32P-labeled DNA probe and allowed to proceed for about 20 to about 25 minutes at room temperature. The oligonucleotide probe for NF-κB:
5′-[sequence] (SEQ ID NO: 2), containing phorbol ester responsive element (TRE, underlined), were annealed with their complementary strands and end-labeled using Klenow DNA polymerase I (Stratagene, La Jolla, Calif.).
The samples were electrophoresed at room temperature in 0.5×TBE buffer (1× TBE: 89 mM Tris base, 89 mM boric acid, 2 mM EDTA) on a non-denaturing 4.5% polyacrylamide gel at 200 V. The gels were dried and directly analyzed in the PhosphorImager (Molecular Dynamics, Sunnyvale, Calif.).
Nuclear protein extracts were prepared by methods known in the art. […] Briefly, samples of pancreatic tissue or isolated acini were rinsed in ice-cold PBS and homogenized in hypotonic Buffer A (20 mM β-glycerophosphate, 10 mM HEPES, pH 7.6, 1.5 mM MgCl2, 10 mM KCl, 10 mM Na2MoO4, 0.1 mM Na3VO4, 1 mM dithiothreitol (DTT), 1 mM phenylmethylsulfonyl fluoride (PMSF), 5 μg/ml each of protease inhibitors pepstatin, leupeptin, chymostatin, antipain and aprotinin). After incubating on ice for about 20 to about 25 minutes, the nonionic detergent Igepal CA-630 (Sigma, St. Louis, Mo.) was added to a final concentration of 0.3 to 0.4% (v/v), followed by an additional incubation on ice for about 1 to about 2 minutes. The crude nuclear pellet was collected by microcentrifugation for 30 seconds. The supernatant (cytosolic protein) was removed, and the nuclear pellet was resuspended in the high-salt buffer C (25% glycerol, 20 mM β-glycerophosphate, 10 mM HEPES, 1.5 mM MgCl2, 420 mM NaCl, 0.2 mM EDTA, 10 mM Na2MoO4, 0.1 mM Na3VO4, 1 mM DTT, 1 mM PMSF, 5 μg/ml each of protease inhibitors pepstatin, leupeptin, chymostatin, antipain and aprotinin. After rotating at 4° C. for up to 1 hour, nuclear membranes were pelleted by microcentrifugation for 10 minutes, and the clear supernatant (nuclear extract) was aliquoted and stored at −80° C. Protein concentration in the nuclear extract was determined by the Bio-Rad protein assay (Bio-Rad Laboratories, Hercules, Calif.).

Which results are given for `COc1cc(/C=C/C(=O)CC(=O)/C=C/c2ccc(O)c(OC)c2)ccc1O` [curcumin]?
inhibition of the increase in serum amylase and lipase ([1]; cerulein pancreatitis): approximately 50%; serum amylase versus pancreatitis without curcumin ([1]; cerulein pancreatitis, p<0.05): significantly inhibited; also recorded: significantly lower; serum lipase versus pancreatitis without curcumin ([1]; cerulein pancreatitis, p<0.05): significantly inhibited; also recorded: significantly lower; inhibition of the increase in serum amylase and lipase ([1]; ethanol/CCK pancreatitis): approximately 50%; serum amylase and lipase versus pancreatitis without curcumin ([1]; ethanol/CCK pancreatitis, p<0.05): significantly inhibited; also recorded: significantly lower; CCK-induced activation of NF-κB in isolated acinar cells (NF-κB [2]; 1 h with compound, then 0.1 μM CCK 30 min): inhibits; also recorded: abolished; also recorded: blocked; also recorded: attenuates; also recorded: not highly potent; basal NF-κB binding activity in acinar cells (NF-κB [2]; control cells, incubated without CCK): inhibited; inhibition of NF-κB activation in CCK-stimulated acinar cells (NF-κB [3]): very little inhibition; behaviour of DMSO solution diluted in saline on intravenous infusion [4]: precipitated; AP-1 activation in the pancreas (AP-1; cerulein pancreatitis): markedly attenuated; also recorded: inhibited; AP-1 activation in the pancreas (AP-1; ethanol/CCK pancreatitis): almost completely blocked; also recorded: inhibited
